Reference: patent US11312727B1, “Macrocyclic flu endonuclease inhibitors” (Janssen BioPharma, Inc., priority 2018, dated 2022)

Assays:
[1] = system: Influenza strain A549 A/WSN/33 (H1N1); assay: microbe, parasite or virus in culture; format: cell-based; conditions: Influenza A virus, A549, 20 h, A549 cells, influenza A/WSN/33 (H1N1), 20 hours incubation; read-out: A549_A(H1N1) EC50
[2] = in vitro; conditions: human, CC50, uninfected A549 cells, CellTiter-Glo

Row | SMILES | EC50 [1] [nM] | CC50 [2] [nM]
1 | O=C1c2c(O)c(=O)ccn2N2CN1C/C=C\CCc1ccccc1[C@@H]2c1ccccc1 (single isomer, unassigned) [Compound 21B, (17*S,*Z)-4-hydroxy-16-phenyl-7,10,11,16-tetrahydro-6,17-methanobenzo[k]pyrido[1,2-b][1,2,5]triazacyclotridecine-3,5-dione] | 815 | > 1000
2 | O=C1c2c(O)c(=O)ccn2N2CN1C/C=C\COc1ccc(F)cc1[C@H]2c1ccccc1 (single isomer, unassigned) [Compound 22A, (18*R,Z)-2-fluoro-12-hydroxy-18-phenyl-6,9-dihydro-18H-10,17-methanobenzo[b]pyrido[1,2-f][1]oxa[5,6,9]triazacyclotridecine-11,13-dione] | 9540 | > 1000
3 | O=C1c2c(O)c(=O)ccn2N2CN1C/C=C\COc1ccc(F)cc1[C@@H]2c1ccccc1 (single isomer, unassigned) [Compound 22B, (18*S,Z)-2-fluoro-12-hydroxy-18-phenyl-6,9-dihydro-18H-10,17-methanobenzo[b]pyrido[1,2-f][1]oxa[5,6,9]triazacyclotridecine-11,13-dione] | 12 | > 1000
4 | O=C1c2c(O)c(=O)ccn2N2CN1CCCCCc1ncccc1[C@H]2c1ccccc1 (single isomer, unassigned) [Compound 23A, (18*R)-12-hydroxy-18-phenyl-5,6,7,8,9,18-hexahydro-10,17-methanodipyrido[1,2-b:2′,3′-k][1,2,5]triazacyclotridecine-11,13-dione] | 55000 | > 10000
5 | O=C1c2c(O)c(=O)ccn2N2CN1CCCCCc1ncccc1[C@@H]2c1ccccc1 (single isomer, unassigned) [Compound 23B, (18*S)-12-hydroxy-18-phenyl-5,6,7,8,9,18-hexahydro-10,17-methanodipyrido[1,2-b:2′,3′-k][1,2,5]triazacyclotridecine-11,13-dione] | 12200 | > 1000
6 | O=C1c2c(O)c(=O)ccn2N2CN1C/C=C\CCc1ncccc1[C@H]2c1ccccc1 (single isomer, unassigned) [Compound 24A, (18*R,*Z)-12-hydroxy-18-phenyl-5,6,9,18-tetrahydro-10,17-methanodipyrido[1,2-b:2′,3′-k][1,2,5]triazacyclotridecine-11,13-dione] | 39600 | > 10000
7 | O=C1c2c(O)c(=O)ccn2N2CN1C/C=C\CCc1ncccc1[C@@H]2c1ccccc1 (single isomer, unassigned) [Compound 24B, (18*S,*Z)-12-hydroxy-18-phenyl-5,6,9,18-tetrahydro-10,17-methanodipyrido[1,2-b:2′,3′-k][1,2,5]triazacyclotridecine-11,13-dione] | 1530 | > 1000
8 | O=C1c2c(O)c(=O)ccn2N2CN1C/C=C\COc1ccc(F)cc1[C@H]2c1cccc(F)c1 (single isomer, unassigned) [Compound 25A, (18*R,Z)-2-fluoro-18-(3-fluorophenyl)-12-hydroxy-6,9-dihydro-18H-10,17-methanobenzo[b]pyrido[1,2-f][1]oxa[5,6,9]triazacyclotridecine-11,13-dione] | 9800 | > 2000
9 | O=C1c2c(O)c(=O)ccn2N2CN1C/C=C\COc1ccc(F)cc1[C@@H]2c1cccc(F)c1 (single isomer, unassigned) [Compound 25B, (18*S,Z)-2-fluoro-18-(3-fluorophenyl)-12-hydroxy-6,9-dihydro-18H-10,17-methanobenzo[b]pyrido[1,2-f][1]oxa[5,6,9]triazacyclotridecine-11,13-dione] | 11 | > 2000
10 | O=C1c2c(O)c(=O)ccn2N2CN1C/C=C\COc1ccccc1[C@H]2c1cccnc1 (single isomer, unassigned) [Compound 26A, (18*R,*Z)-12-hydroxy-18-(pyridin-3-yl)-6,9-dihydro-18H-10,17-methanobenzo[b]pyrido[1,2-f][1]oxa[5,6,9]triazacyclotridecine-11,13-dione] | 394 | > 2000
11 | O=C1c2c(O)c(=O)ccn2N2CN1C/C=C\COc1ccccc1[C@@H]2c1cccnc1 (single isomer, unassigned) [Compound 26B, (18*S,*Z)-12-hydroxy-18-(pyridin-3-yl)-6,9-dihydro-18H-10,17-methanobenzo[b]pyrido[1,2-f][1]oxa[5,6,9]triazacyclotridecine-11,13-dione] | 40100 | > 4000
12 | O=C1c2c(O)c(=O)ccn2N2CN1C/C=C\COc1cccnc1[C@H]2c1ccccc1 (single isomer, unassigned) [Compound 27A, (18*R,*Z)-12-hydroxy-18-phenyl-6,9-dihydro-18H-10,17-methanodipyrido[3,2-b:1′,2′-f][1]oxa[5,6,9]triazacyclotridecine-11,13-dione] | 94 | > 2000
13 | O=C1c2c(O)c(=O)ccn2N2CN1C/C=C\COc1cccnc1[C@@H]2c1ccccc1 (single isomer, unassigned) [Compound 27B, (18*S,*Z)-12-hydroxy-18-phenyl-6,9-dihydro-18H-10,17-methanodipyrido[3,2-b:1′,2′-f][1]oxa[5,6,9]triazacyclotridecine-11,13-dione] | 45700 | > 20000
14 | O=C1c2c(O)c(=O)ccn2N2CN1CC/C=C\COc1cccc3c1[C@H]2c1ccccc1CC3 (single isomer, unassigned) [Compound 28A] | 5950 | > 20000
15 | O=C1c2c(O)c(=O)ccn2N2CN1CC/C=C\COc1cccc3c1[C@@H]2c1ccccc1CC3 (single isomer, unassigned) [Compound 28B] | 6 | > 400
16 | C[C@@H]1/C=C/COc2ccccc2[C@@H](c2ccccc2)N2CN1C(=O)c1c(O)c(=O)ccn12 (single isomer, unassigned) [Compound 29AA, (9*R, 18*R, E)-12-hydroxy-9-methyl-18-phenyl-6,9-dihydro-18H-10,17-methanobenzo[b]pyrido[1,2-f][1]oxa[5,6,9]triazacyclotridecine-11,13-dione] | > 3000 | > 2000
17 | C[C@H]1/C=C/COc2ccccc2[C@@H](c2ccccc2)N2CN1C(=O)c1c(O)c(=O)ccn12 (single isomer, unassigned) [Compound 29AB, (9*S, 18*R, E)-12-hydroxy-9-methyl-18-phenyl-6,9-dihydro-18H-10,17-methanobenzo[b]pyrido[1,2-f][1]oxa[5,6,9]triazacyclotridecine-11,13-dione] | 5.7 | > 200
18 | C[C@@H]1/C=C/COc2ccccc2[C@H](c2ccccc2)N2CN1C(=O)c1c(O)c(=O)ccn12 (single isomer, unassigned) [Compound 29BA, (9*R, 18*S, E)-12-hydroxy-9-methyl-18-phenyl-6,9-dihydro-18H-10,17-methanobenzo[b]pyrido[1,2-f][1]oxa[5,6,9]triazacyclotridecine-11,13-dione] | 1710 | 83100
19 | C[C@H]1/C=C/COc2ccccc2[C@H](c2ccccc2)N2CN1C(=O)c1c(O)c(=O)ccn12 (single isomer, unassigned) [Compound 29BB, (9*S, 18*S, E)-12-hydroxy-9-methyl-18-phenyl-6,9-dihydro-18H-10,17-methanobenzo[b]pyrido[1,2-f][1]oxa[5,6,9]triazacyclotridecine-11,13-dione] | 8 | > 2000
20 | O=C1c2c(O)c(=O)ccn2N2CN1CCCCOc1ccc(F)cc1[C@H]2c1ccccc1 (single isomer, unassigned) [Compound 30A, (18*R)-2-fluoro-12-hydroxy-18-phenyl-6,7,8,9-tetrahydro-18H-10,17-methanobenzo[b]pyrido[1,2-f][1]oxa[5,6,9]triazacyclotridecine-11,13-dione] | > 1000 | > 2000
21 | O=C1c2c(O)c(=O)ccn2N2CN1CCCCOc1ccc(F)cc1[C@@H]2c1ccccc1 (single isomer, unassigned) [Compound 30B, (18*S)-2-fluoro-12-hydroxy-18-phenyl-6,7,8,9-tetrahydro-18H-10,17-methanobenzo[b]pyrido[1,2-f][1]oxa[5,6,9]triazacyclotridecine-11,13-dione] | 15 | > 2000
22 | O=C1c2c(O)c(=O)ccn2N2CN1CCCCOc1ccc(F)cc1[C@H]2c1cccc(F)c1 (single isomer, unassigned) [Compound 32A, (18*R)-2-fluoro-18-(3-fluorophenyl)-12-hydroxy-6,7,8,9-tetrahydro-18H-10,17-methanobenzo[b]pyrido[1,2-f][1]oxa[5,6,9]triazacyclotridecine-11,13-dione] | > 1000 | > 2000
23 | O=C1c2c(O)c(=O)ccn2N2CN1CCCCOc1ccc(F)cc1[C@@H]2c1cccc(F)c1 (single isomer, unassigned) [Compound 32B, (18*S)-2-fluoro-18-(3-fluorophenyl)-12-hydroxy-6,7,8,9-tetrahydro-18H-10,17-methanobenzo[b]pyrido[1,2-f][1]oxa[5,6,9]triazacyclotridecine-11,13-dione] | 25 | > 2000
24 | O=C1c2c(O)c(=O)ccn2N2CN1C/C=C\COc1cccc3c1[C@H]2c1ccccc1CC3 (single isomer, unassigned) [Compound 33A, (19b*R,Z)-4-hydroxy-7,10,15,19b-tetrahydro-14H-13,12-(epiprop[1]en[1]yl[3]ylidene)-6,20-methanobenzo[3,4]cyclohepta[1,2-c]pyrido[1,2-f][1]oxa[5,6,9]triazacyclotridecine-3,5-dione] | > 1000 | > 2000
25 | O=C1c2c(O)c(=O)ccn2N2CN1C/C=C\COc1cccc3c1[C@@H]2c1ccccc1CC3 (single isomer, unassigned) [Compound 33B, (19b*S,Z)-4-hydroxy-7,10,15,19b-tetrahydro-14H-13,12-(epiprop[1]en[1]yl[3]ylidene)-6,20-methanobenzo[3,4]cyclohepta[1,2-c]pyrido[1,2-f][1]oxa[5,6,9]triazacyclotridecine-3,5-dione] | 15 | > 2000
